Counter-ions that a name gives are not always drawn.
What was measured:
human S1P5 receptor = molecular target: T1, human S1P5 receptor (Homo sapiens, UniProt Q9H228); assay: In vitro functional activity (agonism) on human S1P5 receptors, CHO-human-S1P5-Aequorin assay; assay type: cell-based; conditions: CHO-human-S1P5-Aequorin cells, luminescence, read-out: S1P5 pEC50 (converted)
T1 construct: host or cells: CHO (AequoScreen recombinant cell line, co-expressing mitochondrially targeted apo-Aequorin)
T1 sequence (Q9H228 whole entry): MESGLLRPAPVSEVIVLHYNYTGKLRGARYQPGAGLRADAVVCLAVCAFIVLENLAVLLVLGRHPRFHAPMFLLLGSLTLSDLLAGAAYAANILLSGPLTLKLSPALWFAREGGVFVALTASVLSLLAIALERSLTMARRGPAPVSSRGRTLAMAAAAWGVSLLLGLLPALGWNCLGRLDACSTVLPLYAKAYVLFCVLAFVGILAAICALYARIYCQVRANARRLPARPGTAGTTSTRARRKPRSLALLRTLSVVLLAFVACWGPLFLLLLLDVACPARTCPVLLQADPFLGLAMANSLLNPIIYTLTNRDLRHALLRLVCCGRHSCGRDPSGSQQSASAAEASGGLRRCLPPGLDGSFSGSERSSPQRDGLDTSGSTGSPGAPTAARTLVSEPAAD
From the text: In Vitro Functional Activity (Agonism) on Human S1P5 Receptors
(§1) The CHO-human-S1P5-Aecorin assay was bought from Euroscreen, Brussels (Euroscreen, Technical dossier, Human Lysophospholid S1P5 (Edg8) receptor, DNA clone and CHO AequoScreen™ recombinant cell-line, catalog no: ES-593-A, September 2006). Human-S1P5-Aequorin cells express mitochondrial targeted apo-Aequorin. Cells have to be loaded with coelanterazine, in order to reconstitute active Aequorin. After binding of agonists to the human S1P5 receptor the intracellular calcium concentration increases and binding of calcium to the apo-Aequorin/coelenterazine complex leads to an oxidation reaction of coelenterazine, which results in the production of apo-Aequorin, coelenteramide, CO2 and light (λmax 469 nm). This luminescent response is dependent on the agonist concentration. Luminescence is measured using the MicroBeta Jet (Perkin Elmer). Agonistic effects of compounds are expressed as pEC50. Compounds were tested at a 10 points half log concentration range, and 3 independent experiments were performed in single point's measurements.

human S1P3 receptor = molecular target: T2, human S1P3 receptor (Homo sapiens, UniProt Q99500); assay: In vitro functional activity (agonism) on human S1P3 receptors, CHO-human-S1P3-Aequorin assay; assay type: cell-based; conditions: CHO/Gα16/AEQ/h-S1P3 cells, luminescence, read-out: S1P3 pEC50 (converted)
T2 construct: cell line established at Solvay Pharmaceuticals; host or cells: CHO K1 (CHO/Gα16/AEQ/h-S1P3)
T2 sequence (Q99500 whole entry): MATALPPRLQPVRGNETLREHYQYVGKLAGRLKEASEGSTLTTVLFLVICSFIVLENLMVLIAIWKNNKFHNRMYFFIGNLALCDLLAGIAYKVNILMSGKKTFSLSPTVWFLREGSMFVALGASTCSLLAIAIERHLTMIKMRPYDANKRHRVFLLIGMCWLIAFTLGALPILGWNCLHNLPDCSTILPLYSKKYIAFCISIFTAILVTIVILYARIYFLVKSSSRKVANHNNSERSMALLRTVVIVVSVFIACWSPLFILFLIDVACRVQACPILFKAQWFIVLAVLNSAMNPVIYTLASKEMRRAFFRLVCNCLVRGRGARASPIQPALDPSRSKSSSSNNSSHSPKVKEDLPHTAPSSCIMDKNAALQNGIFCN
From the text: In Vitro Functional Activity (Agonism) on Human S1P3 Receptors
The CHO-human-S1P3-Aeqorin assay (CHO/Gα16/AEQ/h-S1P3) was established at Solvay Pharmaceuticals. The plasmid DNA coding for the S1P3 receptor (accession number in GenBank NM_005226 was purchased from UMR cDNA resource Centre (Rolla, Mo.). The pcDNA3.1/hS1P3 construct carrying the mitochondrially targeted apo-Aeqorin and Gα16 protein was transfected in CHO K1 cell-line.
as §1, with “Human-S1P3-Aequorin” for “The CHO-human-S1P5-Aecorin assay was bought from Euroscreen, Brussels (Euroscreen, Technical dossier, Human Lysophospholid S1P5 (Edg8) receptor, DNA clone and CHO AequoScreen™ recombinant cell-line, catalog no: ES-593-A, September 2006). Human-S1P5-Aequorin”, “S1P3” for “S1P5”

human S1P1 = molecular target: T3, human S1P1 (Homo sapiens, UniProt P21453); assay: In vitro functional activity (agonism) on human S1P1 receptors, CHO-K1-Human S1P1-c-AMP assay; assay type: cell-based; conditions: CHO-K1 cells expressing human S1P1, cAMP with Forskolin (HTRF), read-out: S1P1 pEC50 (converted)
T3 construct: host or cells: CHO-K1
T3 sequence (P21453 whole entry): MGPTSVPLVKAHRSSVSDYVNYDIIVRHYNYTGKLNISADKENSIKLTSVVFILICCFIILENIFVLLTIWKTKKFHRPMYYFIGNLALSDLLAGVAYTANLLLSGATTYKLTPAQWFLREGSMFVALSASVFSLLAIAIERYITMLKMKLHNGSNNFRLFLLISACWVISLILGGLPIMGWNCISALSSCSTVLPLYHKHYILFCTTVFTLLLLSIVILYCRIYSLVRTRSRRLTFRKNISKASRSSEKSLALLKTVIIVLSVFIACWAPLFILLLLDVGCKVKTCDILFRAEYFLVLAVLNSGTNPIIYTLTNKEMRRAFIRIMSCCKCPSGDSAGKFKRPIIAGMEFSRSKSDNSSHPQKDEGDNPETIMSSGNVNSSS
Method: In Vitro Functional Activity (Agonism) on Human S1P1 Receptors
The CHO-K1-Human S1P1-c-AMP assay was performed at Euroscreenfast, Brussels (Euroscreen, Human S1P1 coupling […] (Edg1) receptor, catalog no: FAST-0197C, December 2009).
Recombinant CHO-K1 cells expressing human S1P1, grown to mid-log Phase in culture media without antibiotics, detached, centrifuged and re-suspended. For agonist testing cells are mixed with compound and Forskolin and incubated at room temperature. Cells are lyses and cAMP concentration are estimated, according to the manufacturer specification, With the HTRF kit from CIS-BIO International (cat n° 62AM2PEB).
Agonistic effects of compounds are expressed as a percentage of the activity of the reference compound at its EC100 concentration, EC50 is calculated and results are reported as pEC50. Compounds were tested at a 10 points half log concentration range duplicated in 1 experiment.

| Structure (SMILES) | melting point | EC50 (human S1P5 receptor) | EC50 (human S1P3 receptor) | EC50 (human S1P1) |
| --- | --- | --- | --- | --- |
| Cl.O=C(O)CCN1CCOC(c2ccc(Oc3c(Cl)cccc3Cl)cc2C(F)(F)F)C1 (centres unmarked) | 135 to 136 °C | – | – | – |
| Cl.O=C(O)CCN1CCOC(c2ccc(Oc3c(Cl)cccc3Cl)c(Cl)c2)C1 (centres unmarked) | 224 to 227 °C | – | – | – |
| Cc1cccc(Oc2ccc(C3CN(CCC(=O)O)CCS3)cc2)c1C.Cl (centres unmarked) | 178 to 183 °C | – | – | – |
| Cl.O=C(O)CCN1CCOC(c2ccc(Oc3c(Cl)cccc3Cl)cc2F)C1 (centres unmarked) | 207 to 209 °C | – | – | – |
| Cl.O=C(O)CCN1CCSC(c2ccc(Oc3ccccc3Cl)cc2)C1 (centres unmarked) | 155 to 160 °C | – | – | – |
| Cc1cccc(Cl)c1Oc1ccc(C2CN(CCC(=O)O)CCS2)cc1.Cl (centres unmarked) | 192.5 to 195 °C | – | – | – |
| Cc1cccc(C)c1Nc1ccc(C2CN(CCC(=O)O)CCO2)cc1 (centres unmarked) [Compound 2, 3-{2-[4-(2,6-Dimethyl-phenylamino)-phenyl]-morpholin-4-yl}-propionic acid hydrochloride] | – | 631 nM | > 10000 nM | – |
| Cc1cccc(C)c1Oc1cccc(C2CN(CCC(=O)O)CCO2)c1 (centres unmarked) (as salt: hydrochloride) | 219 to 223 °C | – | – | – |

Other lines, results leading:

| melting point | EC50 (human S1P5 receptor) | EC50 (human S1P3 receptor) | EC50 (human S1P1) | Structure (SMILES) |
| --- | --- | --- | --- | --- |
| – | 2000 nM | > 10000 nM | – | O=C(O)CCN1CCOC(c2ccc(Oc3ccc(OCc4ccccc4)cc3)cc2)C1 (centres unmarked) [Compound 57, 3-{2-[4-(4-Benzyloxy-phenoxy)-phenyl]-morpholin-4-yl}-propionic acid hydrochloride] |
| – | 63.1 nM | > 10000 nM | – | O=C(O)CCN1CCOC(c2ccc(Oc3cccc4ccccc34)cc2)C1 (centres unmarked) [Compound 29, 3-{2-[4-(Naphthalen-1-yloxy)-phenyl]-morpholin-4-yl}-propionic acid hydrochloride] |
| – | 1000 nM | – | – | Cc1cccc(Oc2ccc(C3CN(CCCC(=O)O)CCO3)cc2)c1C (centres unmarked) [Compound 87, 4-{2-[4-(2,3-Dimethyl-phenoxy)-phenyl]-morpholin-4-yl}-butyric acid hydrochloride] |
| – | 631 nM | > 10000 nM | – | O=C(O)CCN1CCOC(c2ccc(Oc3ccc4ccccc4c3)cc2)C1 (centres unmarked) [Compound 68, 3-{2-[4-(Naphthalen-2-yloxy)-phenyl]-morpholin-4-yl}-propionic acid hydrochloride] |
| 225 to 227 °C | – | – | – | Cc1cccc(Oc2ccc(C3CN(CCCC(=O)O)CCO3)cc2)c1C (centres unmarked) (as salt: hydrochloride) [Compound 87, 4-{2-[4-(2,3-Dimethyl-phenoxy)-phenyl]-morpholin-4-yl}-butyric acid hydrochloride] |
| – | 631 nM | > 10000 nM | > 31600 nM | Cc1cccc(Oc2ccc(C3(C)CN(CCC(=O)O)CCO3)cc2)c1C (centres unmarked) [Compound 80, 3-{2-[4-(2,3-Dimethyl-phenoxy)-phenyl]-2-methyl-morpholin-4-yl}-propionic acid hydrochloride] |
| – | 501 nM | > 10000 nM | – | Cc1ccc(Oc2ccc(C3CN(CCC(=O)O)CCO3)cc2)cc1Cl (centres unmarked) [Compound 15, 3-{2-[4-(3-Chloro-4-methyl-phenoxy)-phenyl]-morpholin-4-yl}-propionic acid hydrochloride] |
| – | 158 nM | – | > 3160 nM | CC1(C)CN(CCC(=O)O)CC(c2ccc(Oc3c(Cl)cccc3Cl)cc2)O1 (centres unmarked) [Compound 73, 3-{6-[4-(2,6-Dichloro-phenoxy)-phenyl]-2,2-dimethyl-morpholin-4-yl}-propionic acid] |
| – | 501 nM | > 10000 nM | > 3160 nM | O=C(O)CCN1CCOC(c2ccc(C(=O)c3c(Cl)cccc3Cl)cc2)C1 (centres unmarked) [Compound 6, 3-{2-[4-(2,6-Dichloro-benzoyl)-phenyl]-morpholin-4-yl}-propionic acid hydrochloride] |
| – | 200 nM | > 10000 nM | – | Cc1ccc(Oc2ccc(C3CN(CCC(=O)O)CCO3)cc2)cc1C (centres unmarked) [Compound 47, 3-{2-[4-(3,4-Dimethyl-phenoxy)-phenyl]-morpholin-4-yl}-propionic acid hydrochloride] |
| – | 200 nM | > 10000 nM | – | O=C(O)CCN1CCOC(c2ccc(Oc3ccccc3C(F)(F)F)cc2)C1 (centres unmarked) [Compound 35, 3-{2-[4-(2-Trifluoromethyl-phenoxy)-phenyl]-morpholin-4-yl}-propionic acid hydrochloride] |
| – | 2000 nM | 5010 nM | – | CCCCc1ccc(Oc2ccc(C3CN(CCC(=O)O)CCO3)cc2)cc1 (centres unmarked) [Compound 26, 3-{2-[4-(4-Butyl-phenoxy)-phenyl]-morpholin-4-yl}-propionic acid hydrochloride] |
| – | 1580 nM | > 10000 nM | – | Cc1ccc(Oc2ccc(C3CN(CCC(=O)O)CCO3)cc2)cc1 (centres unmarked) [Compound 64, 3-[2-(4-p-Tolyloxy-phenyl)-morpholin-4-yl]-propionic acid hydrochloride] |
